Test results: PubChem BioAssay AID449764 (Southern Research Specialized Biocontainment Screening …, 2010)

Tested on: Mycobacterium tuberculosis H37Rv growth inhibition, no glycerol
Assay: Mycobacterium tuberculosis H37Rv growth inhibition, no glycerol, confirmatory dose response (AID 449764);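 also: growth read after 7 days of incubation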
Settings: for IC90: measured here: IC90 growth inhibition

CC(C)(C)c1csc(NC(=O)c2c(F)c(F)c(F)c(F)c2F)n1
IC50: 21 µM | IC90: 29.4 µM

Cc1cccc(CNc2ncnc3ccc(-c4ccc5c(c4)OCCO5)cc23)c1
IC50: 10.1 µM | IC90: 12.7 µM

Cc1ccc(C(=O)N2N=C(c3ccc(NS(C)(=O)=O)cc3)CC2c2cccs2)cc1 (stereo unspecified)
IC50: 23.6 µM | IC90: 37.5 µM

Oc1ccc(Nc2nc(-c3ccc4ccccc4c3)cs2)cc1
IC50: 82.4 µM | IC90: > 100 µM

COc1ccc(Cc2nnc(SCC(=O)N(c3ccccc3)C(C)C)n(N)c2=O)cc1
IC50: 68 µM | IC90: 97.5 µM

Nc1nonc1C(=O)NCCNCc1c(OCc2ccccc2F)ccc2ccccc12
IC50: 39.5 µM | IC90: 54.4 µM

O=C1c2ccccc2S(=O)(=O)c2cc(C(=O)N3CCN(c4c(Cl)cncc4Cl)CC3)ccc21
IC50: 34.8 µM | IC90: 52.2 µM

C=C1C(=O)O[C@@H]2C[C@@H](C)[C@@H]3C4OC4C(=O)[C@@]3(C)[C@@H](O)[C@H]12 (stereo partly specified)
IC50: 10.5 µM | IC90: 13 µM

CC(C)Oc1ccc(C(=O)N/N=C/c2ccc(-c3ccc(S(=O)(=O)Nc4ncccn4)cc3)o2)cc1
IC50: 55.8 µM | IC90: 89.7 µM

CS(=O)(=O)c1nc(-c2ccccc2)cc(C(F)(F)F)n1
IC50: 18 µM | IC90: 27.6 µM

Cc1ccc(C)c(N2CCN(C(=O)c3ccc4nc(N5CCOCC5)sc4c3)CC2)c1
IC50: 35.2 µM | IC90: 47.6 µM

COc1ccc(C2=NN(C(=O)COC(=O)c3ccc(S(C)(=O)=O)c([N+](=O)[O-])c3)C(c3ccco3)C2)cc1 (stereo unspecified)
IC50: 18.3 µM | IC90: 26.9 µM

CC(C)OC(=O)c1ccc(NC(=S)NC(=O)c2cncc(Br)c2)cc1
IC90: > 100 µM

Cc1cc(C)n2nc(N)c(N=Nc3ccccc3)c2n1
IC50: 2.59 µM | IC90: 3.46 µM

COc1cccc(-c2cc3nc4c(c(NCC(C)(C)CN(C)C)n3n2)CCCC4)c1
IC50: 27.5 µM | IC90: 36.3 µM

CN(Cc1ccc(Cl)s1)C(=O)CCl
IC50: 1.54 µM | IC90: 1.73 µM

Cc1cc(Nc2cc(Cl)nc(Sc3ccc(NC(=O)C4CC4)cc3)n2)n[nH]1
IC50: 43.2 µM | IC90: 59.2 µM

On1onc2c3cc(-c4ccccc4)nc3ccc21
IC50: < 0.2 µM | IC90: < 0.2 µM

CC(=O)OCC1O[C@@H](O[C@@H]2C[C@H]3C(C)(C)[C@H](OC(C)=O)CC[C@]3(C)[C@H]3CC[C@]45C[C@]4(CC[C@H]5[C@@H](C)C[C@@H](O)[C@H](O)C(C)(C)O)[C@@]32C)[C@H](O)[C@@H](O)[C@@H]1O (stereo partly specified)
IC50: 25.9 µM | IC90: 35.7 µM

COc1ccccc1N(O)C1CC(=O)N(c2ccc(Br)cc2)C1=O (stereo unspecified)
IC50: 22.9 µM | IC90: 25.9 µM

O=C(Nc1ccc(Oc2cccc(C(F)(F)F)c2)nc1)c1cccs1
IC50: 85.3 µM | IC90: > 100 µM

COc1cccc(C(=O)NC2CC3CCCC(C2)N3CC(=O)Nc2ccc(N(C)C)cc2)c1 (stereo unspecified)
IC50: 21.8 µM | IC90: 24.4 µM

Cc1c(C(=O)N(C)C)sc2nc(-c3ccccn3)[nH]c(=O)c12
IC50: 19.5 µM | IC90: 31.4 µM

CCn1cc(Br)c(C(=O)Nc2ccc(C(=O)OC(C)C)cc2)n1
IC50: 39.3 µM | IC90: 59.5 µM

Cc1cccc(C)c1OCCCCc1c(C)n[nH]c1C
IC50: 17.7 µM | IC90: > 100 µM

O=C(Nc1ccc(OCC(F)(F)C(F)F)c(C(F)(F)F)c1)c1ccc(Cl)cc1
IC50: 33.2 µM | IC90: 46.9 µM

Cc1cccc(NC(=O)c2nc[nH]c2C(=O)N[C@H](C)c2ccccc2)c1
IC50: 10.2 µM | IC90: > 100 µM

C=CCOC(=O)COc1ccc2c(C)c(CC)c(=O)oc2c1
IC50: 1.49 µM | IC90: 1.68 µM

COc1ccc(-c2nsc3c(N4CCCCC4C)ncnc23)cc1 (stereo unspecified)
IC50: 96.6 µM | IC90: > 100 µM

CCOc1ccc(Nc2cc(C)nc(-n3nc(C)cc3C)n2)cc1
IC50: 2.27 µM | IC90: 4.89 µM

O=C1C2C(c3ccccc3)(C(=O)N1c1ccc(Cl)cc1)C2(c1ccccc1)c1ccccc1 (stereo unspecified)
IC50: 11.6 µM | IC90: 13.6 µM
